Converted amounts (≈) assume the structure as drawn. Like-named read-outs stand apart in the source and are kept apart here.
Experiments:
[1] = biological target: T1, acetylcholinesterase (AChE) (Homo sapiens, UniProt P22303); assay: AChE activity in cellular model of Alzheimer's disease; assay type: cell-based; conditions: with 20 µM Aβ1-42, 24 h
T1 construct: endogenous in cells
Method: Determination of AChE activity: the activity of AChE within the cellular Alzheimer Disease's model was measured by the Acetylcholinesterase Assay Kit (Colorimetric) from Abcam^(R) (Cambridge, MA, USA) according to the manufacturer's recommended protocol.
AChE activity was evaluated in differentiated SH-SY5Y cells treated with BLA, LA, MEM (25 and 50 µM) or media alone for 24 h.

[2] = tested on: Pseudomonas aeruginosa ATCC 27853; assay: Antimicrobial activity; assay type: cell-based; conditions: ATCC27853, P. aeruginosa ATCC 27853
[3] = tested on: differentiated SH-SY5Y cells; assay: Apoptosis detection by Hoechst 33258 staining; assay type: cell-based, human; conditions: 25 and 50 µM co-treatment, 20 µM Aβ1-42, 24 h
Method: Apoptosis detection by Hoechst 33258 staining: Hoechst 33258 staining was used to detect apoptotic nuclei. […] Then, cells fixed with 4% paraformaldehyde in phosphate buffered saline at 4 °C for 30 min. After washing cells with PBS, the nuclear DNAs were incubated with […] Hoechst 33258 fluorescent dye for 5 min at room temperature. Cells were observed and photographed under a fluorescence microscopy (Leica® DM IL LED).

[4] = tested on: Escherichia coli ATCC 25922; assay: Antimicrobial activity; assay type: cell-based; conditions: ATCC25922, E. coli ATCC 25922
[5] = tested on: peripheral human whole blood (PHWB) cells; assay: Cytotoxicity assay (MTT and LDH) on blood cells; conditions: 0.1 to 100 µM, 24 h, MTT and LDH assays
Method: LDH assay: For LDH assay application, LDH cytotoxicity assay kit (Cayman Chemical Company®, Ann Arbor, MI, USA) was used according to the manufacturer's recommendations. The cells were transferred to 48-well plates and different concentrations of drugs were applied for 24 h. After that, 100 µL supernatant and 100 µL of reaction mixture were transferred to a fresh 48-well plate and incubated for 30 min at room temperature. Finally, the absorbance of the cultures was analyzed at 490 nm using a microplate reader as reported by Turkez H. Togar B, Di Stefano A, Taspinar N, Sozio P. Protective effects of cyclosativene on H2O2-induced injury in cultered rat primary cerebral cortx cells. […]
MTT assay: according to the manufacturer's instructions (Cayman Chemical Company®, Ann Arbor, MI, USA), 3-(4,5-Dimethylthiazol-2-yl)-2,5-diphenyltetrazolium bromide (MTT) solution was applied to cell cultures. As summary, MTT was added and incubated in the cell cultures for 3 h and after incubation dimethyl sulfoxide (DMSO) was used to solve formazan crystals, and a plate reader was used to analyse cultures at 570 nm wavelength (Togar B, Turkez H, Hacimuftuoglu A, Tatar A, Geyikoglu F. Guaiazulene biochemical activity and cytotoxic and genotoxic effects on rat neuron and N2a neuroblastom cells. J. Intercult. Ethnopharmacol. 2015; 4:29-33). […]

[6] = tested on: Staphylococcus aureus ATCC 25923; assay: Antimicrobial activity; assay type: cell-based; conditions: ATCC25923, S. aureus ATCC 25923
[7] = tested on: cultured human blood cells; assay: Nucleic acid oxidation, 8-hydroxy-2'-deoxyguanosine assay; assay type: cell-based
Excerpt: (§1) All volunteers have signed informed consent.
Nucleic acid oxidation: 8-hydroxy-2'-deoxyguanosine assay kits (Cayman Chemical®) was used for determining 8- OH-dG levels in the cultures. It is a competitive assay that can be used for the quantification of 8-OHdG in homogenates and recognizes both free 8-OHdG and DNA-incorporated 8-OH-dG. This assay depends on the competition between 8-OH-dG and 8-OH-dGacetylcholinesterase (AChE) conjugate for a limited amount of 8-OH-dG monoclonal antibody (Abdel-Wahab BA, Metwally ME. Ginkgo biloba enhances the anticonvulsant and neuroprotective effects of sodium valproate against kainic acid-induced seizures in mice. J Pharmacol Toxicol. 2011; 6:679-690). All procedures were carried out in accordance with the provider's manual.
The levels of 8-OH-dG, a sensitive marker of oxidative DNA damage, were quantified about mitomycin (MMC) treatment. […] On the contrary, 8-OH-dG levels were not increased in the blood cells that were treated with BLA, MEM, and LA concentrations.

[8] = tested on: Enterococcus faecalis ATCC 29212; assay: Antimicrobial activity; assay type: cell-based; conditions: ATCC29212, E. faecalis ATCC 29212
[9] = tested on: Candida albicans ATCC 90028; assay: Antimicrobial activity; assay type: cell-based; conditions: ATCC90028, C. albicans ATCC 90028
[10] = tested on: SHSY-5Y human neuroblastoma cell line; assay: Antitumor activity, MTT and LDH assays; assay type: cell-based; conditions: dose-dependent
Method: Cytotechnol. 2015; 67:299-309.
Antitumor activity of BLA and MEM was tested on SHSY-5Y human neuroblastoma cell line using MTT and LDH assays. Cells were grown to near-confluency before treatment. Growth of the cell line was inhibited by both drug application in a dose-dependent manner.

[11] = tested on: cultured human lymphocytes; assay: SCE assay (genotoxicity); assay type: cell-based
Method: as §1
SCE assay: to provide successive visualization of SCEs, 5-bromo-2-deoxyuridine was added at culture cells. Exactly 70 h and 30 min after beginning of the incubations, demecolcine ([…]) was added to the cultures. After hypotonic treatment (0.075 M KCl), followed by three repetitive cycles of fixation in methanol/acetic acid solution (3:1, v/v), centrifugation and re-suspension, the cell suspension was dropped onto chilled, grease-free microscopic slides, air-dried, aged for three days, and then differentially stained for the inspection of the SCE rate according to the fluorescence plus Giemsa (FPG) procedure. For each treatment condition, well-spread twenty-five second division metaphases containing 42-46 chromosomes per cell were scored and the values obtained were calculated as SCEs per cell.
The frequencies of sister chromatid exchanges (SCEs) with increasing BLA concentrations were investigated in cultured human lymphocytes.

T1 sequence (P22303 32-614): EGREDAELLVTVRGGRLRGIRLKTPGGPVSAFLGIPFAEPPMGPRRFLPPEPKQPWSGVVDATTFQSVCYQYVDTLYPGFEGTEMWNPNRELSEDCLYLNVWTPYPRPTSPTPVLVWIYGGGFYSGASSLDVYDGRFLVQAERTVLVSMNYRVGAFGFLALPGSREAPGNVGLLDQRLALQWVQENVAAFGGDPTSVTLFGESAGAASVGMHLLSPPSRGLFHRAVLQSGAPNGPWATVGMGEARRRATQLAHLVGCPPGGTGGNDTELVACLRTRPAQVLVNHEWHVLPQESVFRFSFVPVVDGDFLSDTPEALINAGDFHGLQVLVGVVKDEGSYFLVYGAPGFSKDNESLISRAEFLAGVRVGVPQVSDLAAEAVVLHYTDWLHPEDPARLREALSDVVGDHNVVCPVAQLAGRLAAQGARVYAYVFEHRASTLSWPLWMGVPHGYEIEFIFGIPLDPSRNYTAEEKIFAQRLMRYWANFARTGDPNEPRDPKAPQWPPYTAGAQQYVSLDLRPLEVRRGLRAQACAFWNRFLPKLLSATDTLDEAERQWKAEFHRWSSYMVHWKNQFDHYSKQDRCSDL

Compound | reduced Aβ-induced AChE activity ([1]; 25 µM) | reduced Aβ-induced AChE activity ([1]; 50 µM) | MIC [2] | nuclear integrity and apoptosis by Aβ1-42 (Hoechst 33258) [3] | MIC [4] | changes in cell viability [5] | MIC [6] | 8-OH-dG levels [7] | MIC [8] | MIC [9] | antitumor effects (growth inhibition) [10] | frequencies of sister chromatid exchanges (SCEs) ([11]; versus control group, P > 0.05) | frequencies of sister chromatid exchanges (SCEs) [11]
CC1(C)C2CC3OB(CNC(=O)CCCC[C@H]4CCSS4)O[C@]3(C)C1C2 (stereo partly drawn) [BLA, 5-((S)-1,2-dithiolan-3-yl)-N-(((3aR)-3a,5,5-trimethylhexahydro-4,6-methanobenzo[d][1,3,2]dioxaborol-2-yl)methyl)pentanamide] | 18.77% | 22.96% | 256 µg/mL (≈ 644 µM) | protected nuclear integrity and inhibited apoptosis | 128 µg/mL (≈ 322 µM) | did not show any significant changes in cell viability | 256 µg/mL (≈ 644 µM) | not increased | 256 µg/mL (≈ 644 µM) | 128 µg/mL (≈ 322 µM) | moderate antitumor effects | not significant differences | 
O=C(O)CCCCC1CCSS1 (stereo not drawn) [LA, 1,2-dithiolane-3-pentanoic acid] |  |  |  | protected nuclear integrity and inhibited apoptosis |  |  |  | not increased |  |  |  |  | not higher than the control group

— patent EP3495372B1 (priority 2017, dated 2019)
